Entries after “also recorded” stand apart in the source; their conditions may differ.
Columns and labels:
Sprague-Dawley rats = test: Forced swim test (FST) in rats; assay type: in vivo, rat; details: for Immobility time (s) (mean ± SEM): i.g.
SD model mice = test: FST in sleep deprivation (SD) model mice; assay type: in vivo, mouse
Experimental: (§1) Kunming mice (Certificate Number: A4CXK(Chuan)2003-16) from the Institute of Experimental Animals, People's Hospital of Sichuan Province, were used. They were 3-4 weeks old at the beginning of the experiments and weighed 25-30 g. ORG was prepared as described in Example 1. Animals were divided into experiment groups with different doses, a vehicle control group, and an imipramine group (Sigma, Batch No. 1061c1588) as positive control.
SD model: A modified method with multiple platforms in a water environment was used to establish the SD model in mice. Mice on the platforms were free to eat and drink. However, if it fell asleep, it fell into the water because of the loss of muscle tone. The fallen animal climbed onto the platform again via a tilt pole which propped up the platforms. After 72 h of sleep deprivation, ORG was administered orally 24 h and 5 h before the FST started. The immobility time of animals were recorded. Methods and data analysis were as described above.

rats = test: Conditioned fear stress-induced freezing behavior test in rats; assay type: in vivo, rat; details: i.p. 24 h and 5 h before footshocks, re-exposure 24 h later
Experimental: as §1, with “experiment” for “experiments”, “drug administration” for “experiment”, “doses of ORG,” for “doses,”, “a diazepam” for “an imipramine”, “(Jinyao Ltd. Co.,” for “(Sigma,”, “106k1588)” for “1061c1588)”
Footshock-induced freezing behavior: Animals received an i.p. injection of ORG or vehicle 24 h and 5 h before being placed in a standard conditioning chamber (Med Associates, USA) for a 10 min training session. Two, 4, 6, 8, and 10 min after the onset of the session, a footshock (0.8 mA, 2 s) was delivered through the grid floor of the chamber. The freezing time during the last 5 min were recorded. Rats were placed in the chamber again without footshock 24 h after the first training, and the freezing time was recorded.
Data analysis: The results of the test are expressed as mean±SEM. One-way ANOVA was used followed by the LSD test with SPSS 11 software. The significance level was set at P<0.05.

serum corticosterone = test: Serum corticosterone level (radioimmunoassay), non-stressed and elevated platform stressed rats; assay type: in vivo, rat
[1] = test system: LTP in the CA1 area of hippocampus; test: Long-term potentiation (LTP) recording in hippocampal slices of footshock-stressed rats; assay type: cell-based, rat
Experimental: Rats weighing 250-300 g, from the Institute of Experimental Animals, People's Hospital of Sichuan Province, were used. ORG was prepared as described in Example 1. Fluoxetine was from Wuhan Yuancheng Technology Co. (Wuhan, China; Batch No: 1004-0801002).
Method of long-term potentiation (LTP) recording in hippocampus: Excitatory postsynaptic potentials (EPSPs) in the hippocampus were recorded to determine the anti-stress effect of ORG. Stress impairs LTP in the CAl area of hippocampus, and this can be rescued by anti-stress drugs. Rats were stressed by footshock as follows: 1 mA, 2 s, 5 times at intervals of 2 min. Hippocampal slices were prepared, incubated for 1 h at 34-36° C., and then kept at room temperature. ORG was applied in the bath solution. EPSPs mediated by NMDA and AMPA receptors in the CA1 region were recorded until the baseline was stable for 20 min. Then high frequency stimulation (HFS, 100 Hz, 100 pulses, 20 s interval) was used to induce LTP. The EPSPs were recorded for 1 h after HFS.
Data Analysis: Data are expressed as mean±SEM and LTP is expressed as the percentage of the average amplitude of the last 10 min relative to the baseline. One-way ANOVA was used followed by the LSD test with SPSS 11 software. The significance level was set at P<0.05.

[2] = Acute toxicity test of ORG in mice; assay type: in vivo; details: mouse, in vivo, 1750 mg/kg; acute toxicity test, Kunming mice, oral; read-out: median toxic dose (TD50)
Experimental: (§2) Kunming mice (Certificate Number: A4CXK(Chuan)2003-16) from the Institute of Experimental Animals, People's Hospital of Sichuan Province, were used. They were 3-4 weeks old and at the beginning of the experiment and weighed 25-30 g. ORG was prepared as described in Example 1. ORG (1750 mg) was dissolved in 10 ml NS to give a concentration of 175 mg/ml. Mice were divided into two groups, the ORG group for evaluation was given ORG and a group was treated with NS for vehicle control. ORG and NS were given to each group orally at a volume of 0.1 ml/10 g.

Kunming mice [3] = test: Acute toxicity test of ORG in mice; assay type: in vivo; details: mice, 1750 mg/kg oral
Experimental: as §2

Kunming mice [4] = test: Tail suspension test (TST) in mice

SMILES: Cc1cc(O)cc(OC2OC(CO)C(O)C(O)C2O)c1 [ORG, orcinol-1-O-β-D-glucopyranoside]
- dose of the best efficacy (Sprague-Dawley rats; ORG administered orally): 4 mg/kg
- ED50 (Sprague-Dawley rats; Rattus norvegicus, po, ORG administered orally): ~0.22 mg/kg
- Immobility time (s) (mean ± SEM) (Sprague-Dawley rats; 0.0625 mg/kg, given at 0 and 19 h after pre-test swim): 187.20 ± 11.97 s
- Immobility time (s) (mean ± SEM) (Sprague-Dawley rats; 0.125 mg/kg): 181.50 ± 8.19 s
- Immobility time (s) (mean ± SEM) (Sprague-Dawley rats; 0.1875 mg/kg): 138.90 ± 13.31 s
- Immobility time (s) (mean ± SEM) (Sprague-Dawley rats; 0.25 mg/kg): 121.05 ± 9.44 s
- Immobility time (s) (mean ± SEM) (Sprague-Dawley rats; 0.5 mg/kg): 113.70 ± 6.74 s
- Immobility time (s) (mean ± SEM) (Sprague-Dawley rats; 1 mg/kg): 96.87 ± 7.40 s
- Immobility time (s) (mean ± SEM) (Sprague-Dawley rats; 2 mg/kg): 91.60 ± 7.06 s
- Immobility time (s) (mean ± SEM) (Sprague-Dawley rats; 4 mg/kg): 84.40 ± 9.20 s
- Immobility time (s) (mean ± SEM) (Sprague-Dawley rats; 8 mg/kg): 94.30 ± 9.86 s
- Immobility time (s) (mean ± SEM) (Sprague-Dawley rats; 16 mg/kg): 91.40 ± 11.36 s
- Immobility time (s) (mean ± SEM) (Sprague-Dawley rats; 32 mg/kg): 107.26 ± 10.74 s
- Immobility time (s) (mean ± SEM) (Sprague-Dawley rats; 64 mg/kg): 105.90 ± 19.77 s
- Immobility time (s) (mean ± SEM) (Sprague-Dawley rats; 128 mg/kg): 103.00 ± 17.42 s
- dose of the best efficacy (SD model mice; FST, SD model mice, ORG oral twice): 10 mg/kg
- ED50 (SD model mice; Mus musculus, FST, SD model mice, ORG oral twice): ~3.79 mg/kg
- therapeutic index = TD50÷ED50 (SD model mice; SD mice, FST): > 462
- Immobility time (s) (mean ± SEM) (SD model mice; SD model mice (72 h sleep deprivation), oral 24 h and 5 h before FST, 1.25 mg/kg): 198.00 ± 11.43 s
- Immobility time (s) (mean ± SEM) (SD model mice; SD model mice, 24 h and 5 h before FST, 7.5 mg/kg): 153.00 ± 11.83 s
- Immobility time (s) (mean ± SEM) (SD model mice; SD model mice, oral 24 h and 5 h before FST, 2.5 mg/kg): 177.67 ± 15.95 s
- Immobility time (s) (mean ± SEM) (SD model mice; SD model mice, oral 24 h and 5 h before FST, 5 mg/kg): 160.80 ± 11.64 s
- Immobility time (s) (mean ± SEM) (SD model mice; SD model mice, oral 24 h and 5 h before FST, 10 mg/kg): 148.23 ± 7.80 s
- Immobility time (s) (mean ± SEM) (SD model mice; SD model mice, oral 24 h and 5 h before FST, 20 mg/kg): 162.67 ± 9.27 s
- Duration of freezing (s) (mean ± SEM) (rats; 5 mg/kg): 310.30 ± 66.19 s
- Duration of freezing (s) (mean ± SEM) (rats; 20 mg/kg): 95.00 ± 17.73 s
- Concentration of serum corticosterone (ng/ml) (mean ± SEM) (serum corticosterone; non-stress rats, i.p., 3.5 mg/kg): 166.06 ± 41.90 ng/mL
- Concentration of serum corticosterone (ng/ml) (mean ± SEM) (serum corticosterone; non-stress rats, i.p., 14 mg/kg): 70.04 ± 14.75 ng/mL
- Concentration of serum corticosterone (ng/ml) (mean ± SEM) (serum corticosterone; non-stress rats, i.p., 28 mg/kg): 63.13 ± 22.21 ng/mL
- Concentration of serum corticosterone (ng/ml) (mean ± SEM) (serum corticosterone; non-stress rats, i.p., blood 1 h after injection, 0.875 mg/kg): 209.02 ± 52.77 ng/mL
- Concentration of serum corticosterone (ng/ml) (mean ± SEM) (serum corticosterone; stress rats (elevated platform 30 min, 1 h after i.p. injection), 0.875 mg/kg): 349.85 ± 61.75 ng/mL
- Concentration of serum corticosterone (ng/ml) (mean ± SEM) (serum corticosterone; stress rats, i.p., 3.5 mg/kg): 263.63 ± 49.14 ng/mL
- Concentration of serum corticosterone (ng/ml) (mean ± SEM) (serum corticosterone; stress rats, i.p., 14 mg/kg): 237.63 ± 32.45 ng/mL
- Concentration of serum corticosterone (ng/ml) (mean ± SEM) (serum corticosterone; stress rats, i.p., 28 mg/kg): 137.41 ± 26.84 ng/mL
- LTP, Average of last 10 min (mean ± SEM) ([1]; control (non-stressed) slices incubated with 5 μM, percentage of average EPSP amplitude of last 10 min relative to baseline): 122.93 ± 3.75
- LTP, Average of last 10 min (mean ± SEM) ([1]; footshock (FS) stressed rat slices incubated with 50 nM, percentage relative to baseline): 128.99 ± 7.30
- LTP, Average of last 10 min (mean ± SEM) ([1]; footshock (FS) stressed rat slices incubated with 5 μM, percentage relative to baseline): 189.56 ± 23.6
- TD50 [2]: > 1750 mg/kg
- acute toxicity: survival (Kunming mice [3]; 14 days): All mice survived
- acute toxicity: weight gain (Kunming mice [3]; 14 days): the weight gain was normal
- acute toxicity: appearance, behavior, mental status, appetite, hair, color, breathing (ethological investigation) (Kunming mice [3]; observed for 14 days, 1750 mg/kg): did not find abnormalities; also recorded: nothing abnormal was found
- acute toxicity: pathological section of visceral organs (Kunming mice [3]; sacrificed on day 14): no evident abnormalities
- ED50 (Kunming mice [4]; Mus musculus): ~0.73 mg/kg
- dose of the best efficacy (Kunming mice [4]; TST mice, ORG i.g. 24 h and 5 h before test): 12 mg/kg
- Immobility time (s) (mean ± SEM) (Kunming mice [4]; TST mice, i.g. 24 h and 5 h before test, 0.1875 mg/kg): 161.70 ± 6.89 s
- Immobility time (s) (mean ± SEM) (Kunming mice [4]; TST mice, i.g., 0.375 mg/kg): 155.68 ± 6.77 s
- Immobility time (s) (mean ± SEM) (Kunming mice [4]; TST mice, i.g., 0.5 mg/kg): 125.30 ± 6.93 s
- Immobility time (s) (mean ± SEM) (Kunming mice [4]; TST mice, i.g., 0.75 mg/kg): 117.33 ± 6.56 s
- Immobility time (s) (mean ± SEM) (Kunming mice [4]; TST mice, i.g., 1.5 mg/kg): 109.27 ± 6.81 s
- Immobility time (s) (mean ± SEM) (Kunming mice [4]; TST mice, i.g., 3 mg/kg): 98.07 ± 5.95 s
- Immobility time (s) (mean ± SEM) (Kunming mice [4]; TST mice, i.g., 6 mg/kg): 89.73 ± 5.02 s
- Immobility time (s) (mean ± SEM) (Kunming mice [4]; TST mice, i.g., 12 mg/kg): 77.67 ± 5.33 s
- Immobility time (s) (mean ± SEM) (Kunming mice [4]; TST mice, i.g., 24 mg/kg): 91.03 ± 7.44 s
- Immobility time (s) (mean ± SEM) (Kunming mice [4]; TST mice, i.g., 48 mg/kg): 100.20 ± 10.46 s
- Immobility time (s) (mean ± SEM) (Kunming mice [4]; TST mice, i.g., 96 mg/kg): 107.68 ± 8.85 s
- therapeutic index (TI) = TD50÷ED50 (Kunming mice [4]; mice, TST): > 2397
